Source: patent US9173871B2, “Oxazole and thiazole compounds as beta-catenin modulators and uses thereof” (New York University, priority 2008, dated 2015)

Legend:
[1] = system: ARE-LUC androgen responsive reporter gene in LNCaP-abl; test: AR responsive luciferase reporter (ARE-LUC / LB1-LUC) in LNCaP-abl cells; assay type: cell-based
Protocol: LNCaP or LNCaP-abl (ABL) cells were cotransfected with 0.1 μg β-galactosidase and 0.2 μg S37A stabilized β-catenin together with the indicated luciferase reporter constructs; STF16-LUC (β-catenin reporter) and LB1-LUC (AR reporter). […] Luciferase activity was normalized to β-galactosidase expression.
To determine the IC50 for the β-catenin/Wnt-responsive reporter, cells were cotransfected with β-galactosidase (LacZ) and a constitutively active S37A stabilized β-catenin mutant construct together with the reporter construct, STF16-LUC. To determine the IC50 for the AR-responsive construct, cells were cotransfected with LacZ and the AR responsive reporter construct, ARE-LUC. […] B) AR overexpression circumvents C3 repression of AR-responsive transcription. LNCaP cells were cotransfected with 0.1 μg LacZ and 0.2 μg of the AR responsive reporter construct, ARE-LUC, together with 0, 0.05, 0.1 and 0.2 μg of an AR expression vector. […] Luciferase activity was normalized to LacZ expression.
108(15): 5954-63], it had not been determined in prostate cancer cells. […] 69(8): 3332-8].

VCaP cells = test: Growth of VCaP cells; assay type: cell-based; settings: 20 μM daily
LNCaP-abl cells = test: PARP cleavage immunoblot as marker of apoptosis, LNCaP-abl; assay type: cell-based; settings: 20 μM, 72 hr
[2] = system: AR and β-catenin target genes in LNCaP cells; test: Q-PCR of AR and β-catenin target genes in LNCaP cells; assay type: cell-based; settings: 20 μM, 24 hr
Excerpt: Samples are normalized to RPL19 and E-cadherin and GAPDH are included as controls.
While β-catenin can act as an AR coactivator [Song et al., J Biol Chem, 2005. 280(45): 37853-67], AR mRNA levels are also directly regulated by TCF binding sites in the AR promoter [Yang et al., Oncogene, 2006. 25(24): 3436-44]. […] AR mRNA was quantified along with well-characterized AR target genes, Nkx3.1 and PSA. In addition, CDC20, CDK1 and UBE2C, M phase cell cycle regulatory genes that are AR targets in LNCaP-abl cells were examined [Wang et al., Cell, 2009. 138(2): 245-56]. Levels of c-myc were also examined since c-myc is a known Wnt/β-catenin target gene and assessment of information available through the Memorial Sloan Kettering cBio Cancer Genomics portal [Taylor et al., Cancer Cell, 2010. […] E-cadherin and GAPDH are not affected by C3 treatment.

AR nascent mRNA = test: Q-PCR of nascent AR mRNA in LNCaP cells; assay type: cell-based; settings: 20 μM, four hours, presence or absence of R1881
Protocol: RNA was extracted, treated with deoxyribonuclease and subjected to cDNA synthesis. Relative levels of nascent AR mRNA were analyzed by Q-PCR using primers flanking exon/exon and exon/intron.

[3] = Toxicity / maximum tolerated dose in mice; assay type: in vivo
Protocol: Importantly, given the role of the Wnt/β-catenin pathway as a regulator of intestinal stem cells [Korinek et al., Nat Genet, 1998. 19(4): 379-83; van de Wetering et al., Cell, 2002. […] Accordingly, mice were injected 5 days/week for 5 weeks at a range of concentrations between 50-125 mg/Kg and compared to vehicle-alone control. Toxicity was monitored by assessing mouse weight, blood counts and mortality. The MTD determination was performed at the fee-for-service, anti-tumor assessment facility at Memorial Sloan Kettering Cancer Center.

[4] = biological target: Wnt/wg pathway, Wnt-responsive luciferase reporter dTF12; settings: Gonsalves et al., PNAS 2011; read-out: IC50, β-catenin-responsive luciferase reporter (dTF12); cited from earlier work
[5] = 75 mg/Kg injected 5 days a week for 5 weeks

For `CCc1ccc(-c2nc(CSCC(=O)NCCc3ccccc3)c(C)o2)cc1` [Compound C3], the IC50 ([1]; LNCaP-abl (second of two values)) was 1610 nM, the “AR reporter gene activity (LB1-LUC)” value ([1]; LNCaP-abl, 20 uM, 24 hr) was “inhibits” and the cell growth (VCaP cells) was “completely abolished”. The “PARP cleavage (apoptosis marker)” value (LNCaP-abl cells) was “Increased levels of PARP cleavage”, the “mRNA of E-cadherin and GAPDH (controls)” value [2] was “not affected” and the “mRNA of AR, NR×3.1, CDC20, PSA, CDK1, c-myc and UBE2C” value ([2]; with or without R1881) was “diminished”. For the same compound, the “levels of newly synthesized AR mRNA” value (AR nascent mRNA) was “diminishes”, the body weight [3, 5] was “did not lose weight” and the gut toxicity [3, 5] was “no gut toxicity”. For the same compound, the “histology of all major organs” value [3, 5] was “normal”, the “toxicity (overall)” value [3, 5] was “not toxic” and the toxicity ([3]; continuous injection of 20 mg/Kg by mini-pump for 5 weeks) was “no toxicity”. The IC50 [4] was 8.2 nM.
